Entries after “also recorded” stand apart in the source; their conditions may differ.
Test system: circulating macrophage/monocyte population
Test: Monocyte/macrophage depletion with gadolinium chloride in the NaIO3 model
Assay type: in vivo, rat
Description: To determine the identity of the autofluorescent cells that coincide with the reticular pattern of FAF, excised retina were stained for with markers of the innate immune system, avoiding the 488 nm channel. Iba1 is a pan-microglial/macrophage marker and in the rat retina; antibodies against it identify the major phagocytic cell populations. […] Further, when compared against photoreceptor nuclear staining, this curvilinear pattern is seen to lie interposed between folds of the deformed ONL. This pattern of Iba1^+ cells corresponds with the pattern of hyperfluorescence observed in vivo by FAF imaging, and with the pattern of autofluorescent cells in excised retina. […] Importantly, at 7 days after NaIO3, all RPE cells are absent from the posterior eye cup, confirming that these cells cannot be responsible for the observed FAF. Also, identification of the autofluorescent cells as phagocytic was confirmed by comparison of imaging to preparations in which monocyte/macrophage depletion has been undertaken. Such depletion was achieved by treatment with gadolinium chloride (GAD). […]

Structure (SMILES): [Cl][Gd]([Cl])[Cl] [GAD, gadolinium chloride]
- area of damage (7 days after NaIO3 and simultaneous GAD depletion): smaller areas of damage
- FAF pattern of NaIO3-induced outer retinal damage (GAD-treated vs untreated, after NaIO3): far less well defined reticular patterns of FAF; also recorded: profound alteration of the NaIO3-induced pattern of FAF and DNIRA; also recorded: less well-demarcated borders

From patent publication US12377171B2, “Methods for treating and diagnosing blinding eye diseases” (Translatum Medicus Inc., priority 2012, dated 2025)
